Biological target: T1, LsaA (Enterococcus faecalis, UniProt Q7WT47)
T1 construct: gene lsa
Conditions: 1 uM LsaA, 1 mM ATP, 1 uM lincomycin; indirect read-out

T1 sequence (Q7WT47 entry or part of it): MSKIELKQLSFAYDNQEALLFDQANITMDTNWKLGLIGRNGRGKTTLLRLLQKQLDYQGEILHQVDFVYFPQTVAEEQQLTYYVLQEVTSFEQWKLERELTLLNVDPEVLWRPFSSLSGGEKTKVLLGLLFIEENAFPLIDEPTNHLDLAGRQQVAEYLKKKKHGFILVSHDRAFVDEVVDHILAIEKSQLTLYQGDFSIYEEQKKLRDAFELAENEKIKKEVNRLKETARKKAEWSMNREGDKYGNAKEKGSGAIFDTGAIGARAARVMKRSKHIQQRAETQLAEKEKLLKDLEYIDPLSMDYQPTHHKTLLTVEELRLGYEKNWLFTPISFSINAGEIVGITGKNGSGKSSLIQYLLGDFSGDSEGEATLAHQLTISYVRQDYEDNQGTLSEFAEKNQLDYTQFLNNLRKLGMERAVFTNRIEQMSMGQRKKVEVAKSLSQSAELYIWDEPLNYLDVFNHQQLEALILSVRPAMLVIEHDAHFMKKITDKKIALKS

Structure (SMILES): Nc1ncnc2c1ncn2[C@@H]1O[C@H](COP(=O)(O)OP(=O)(O)OP(=O)(O)O)[C@@H](O)[C@H]1O [ATP]
- ATP-dependent rescue of puromycin reaction of lincomycin-inhibited E. faecalis 7: in the absence of ATP LsaA has no effect
